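Growth conditions: 96-well plates. Treatment: test compound, 48 hours, 5 concentrations. Analysis: linear interpolation between bracketing concentrations; unreached endpoints set to highest concentration. At the GI50, growth is halved.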 Active and inactive are the calls of the source. Cut-off read from the data, not from the text of the source: active = GI50 up to about 1.1 µM and inactive = higher.
Legend:
Assay in all cases: NCI-60 cell line screen, 48 h
OVCAR-8 = test system: OVCAR-8
SNB-75 = test system: SNB-75
A498 = test system: A498
M19-MEL = test system: M19-MEL
TK-10 = test system: TK-10
SF-295 = test system: SF-295
U-251 = test system: U-251
IGROV-1 = test system: IGROV-1
A549 = test system: A549
NCI-H23 = test system: NCI-H23
SR = test system: SR
HCC 2998 = test system: HCC 2998
SF-268 = test system: SF-268
COLO 205 = test system: COLO 205
LOX IMVI = test system: LOX IMVI
HOP-92 = test system: HOP-92
CCRF-CEM = test system: CCRF-CEM
HOP-62 = test system: HOP-62
BT-549 = test system: BT-549
NCI-H522 = test system: NCI-H522

CC1=Nc2c(O)nc(S)nc2NC(c2c(Cl)cccc2Cl)C1 (stereo not given)
GI50 (OVCAR-8): 0.877 µM (active) | GI50 (SNB-75): 3.34 µM (inactive) | GI50 (A498): 1.67 µM (inactive) | GI50 (M19-MEL): 1.48 µM (inactive) | GI50 (TK-10): 10.1 µM (inactive) | GI50 (SF-295): 1.61 µM (inactive) | GI50 (U-251): 0.993 µM (active) | GI50 (IGROV-1): 2.36 µM (inactive) | GI50 (A549): 3.43 µM (inactive) | GI50 (NCI-H23): 2.65 µM (inactive) | GI50 (SR): 0.372 µM (active) | GI50 (HCC 2998): 10.9 µM (inactive) | GI50 (SF-268): 1.57 µM (inactive) | GI50 (COLO 205): 1.87 µM (inactive) | GI50 (LOX IMVI): 0.766 µM (active) | GI50 (HOP-92): 9.31 µM (inactive) | GI50 (CCRF-CEM): 0.275 µM (active) | GI50 (HOP-62): 6.84 µM (inactive) | GI50 (BT-549): 1.24 µM (inactive) | GI50 (NCI-H522): 1.98 µM (inactive)

From ChEMBL document CHEMBL1201862, “PubChem BioAssay data set” (2004)
